Reference: ChEMBL document CHEMBL1133949, “Development of C-20 modified betulinic acid derivatives as antitumor agents” (Bioorg Med Chem Lett, 2001)

Assays:
HCT-116 = assay: Cytotoxicity of compound against human colon carcinoma (HCT116) using MTT assay; format: functional
M14 = assay: Cytotoxicity of compound against human melanoma cell lines (M14-MEL) using MTT assay; format: functional
PC-3 = assay: Cytotoxicity of compound against human prostate adenocarcinoma (PC3) using SRB assay; format: functional, cell-based, Prostate gland
SK-MEL-2 [1] = assay: Cytotoxicity of compound against SK-MEL-2 using SRB assay; format: functional, cell-based, Homo sapiens
SK-MEL-2 [2] = assay: Cytotoxicity of compound against human melanoma cell lines (SK-MEL-2) using MTT assay; format: functional
UACC-257 = assay: Cytotoxicity of compound against human melanoma cell lines (UACC-257) using MTT assay; format: functional

Row | Compound | GI50 (HCT-116) [µM] | GI50 (M14) [µM] | EC50 (PC-3) [µM] | EC50 (SK-MEL-2 [1]) [µM] | GI50 (SK-MEL-2 [2]) [µM] | GI50 (UACC-257) [µM]
1 | CC(O)[C@@H]1CC[C@]2(C(=O)O)CC[C@]3(C)[C@H](CC[C@@H]4[C@@]5(C)CC[C@H](O)C(C)(C)[C@@H]5CC[C@]43C)[C@@H]12 (stereo not given in full) | > 50 | > 50 | > 50 | > 50 | > 50 | > 50
2 | C=C(CNOC)[C@@H]1CC[C@]2(C(=O)O)CC[C@]3(C)[C@H](CC[C@@H]4[C@@]5(C)CC[C@H](O)C(C)(C)[C@@H]5CC[C@]43C)[C@@H]12 |  |  | > 50 | > 50 |  | 
3 | CC(C)[C@@H]1CC[C@]2(C(=O)O)CC[C@]3(C)C(CCC4[C@@]5(C)CC[C@H](O)C(C)(C)C5CC[C@]43C)C12 (stereo not given in full) [DIHYDROBETULINIC ACID] |  |  | > 2.2 | > 2 |  | 
4 | C=C(C)[C@@H]1CC[C@]2(C(=O)O)CC[C@]3(C)[C@H](CC[C@@H]4[C@@]5(C)CC[C@H](OC(C)=O)C(C)(C)[C@@H]5CC[C@]43C)[C@@H]12 | > 11.3 | > 6.4 | > 7.2 | > 6.9 | > 3.9 | > 4.5
5 | CC(C)[C@@H]1CC[C@]2(C(=O)O)CC[C@]3(C)[C@H](CC[C@@H]4[C@@]5(C)CCC(=O)C(C)(C)[C@@H]5CC[C@]43C)[C@@H]12 [DIHYDROBETULONIC ACID] |  |  | > 1.3 | > 1.6 |  | 
6 | CO/N=C(/C)[C@@H]1CC[C@]2(C(=O)O)CC[C@]3(C)[C@H](CC[C@@H]4[C@@]5(C)CC[C@H](O)C(C)(C)[C@@H]5CC[C@]43C)[C@@H]12 | > 50 | > 50 | > 50 | > 50 | > 50 | > 50
7 | C=C(CNO)[C@@H]1CC[C@]2(C(=O)O)CC[C@]3(C)[C@H](CC[C@@H]4[C@@]5(C)CC[C@H](O)C(C)(C)[C@@H]5CC[C@]43C)[C@@H]12 |  |  | > 50 | > 50 |  | 
8 | C=C(COC)[C@@H]1CC[C@]2(C(=O)O)CC[C@]3(C)[C@H](CC[C@@H]4[C@@]5(C)CC[C@H](O)C(C)(C)[C@@H]5CC[C@]43C)[C@@H]12 | > 8.6 | > 9 | > 9.4 | > 10.1 | > 50 | > 12.7
9 | C=C(C)[C@@H]1CC[C@]2(C(=O)O)CC[C@]3(C)[C@H](CC[C@@H]4[C@@]5(C)CC[C@H](O)C(C)(C)[C@@H]5CC[C@]43C)[C@@H]12 [BETULINIC ACID] | 2.7 | 2.7 | 1.9 | 2.2 | 3.2 | 1.5
10 | CO/N=C1\CC[C@]2(C)[C@H]3CC[C@@H]4[C@H]5[C@H](C(C)C)CC[C@]5(C(=O)O)CC[C@@]4(C)[C@]3(C)CC[C@H]2C1(C)C |  |  | > 16.4 | > 21.2 |  | 
11 | C=C(CO)[C@@H]1CC[C@]2(C(=O)O)CC[C@]3(C)[C@H](CC[C@@H]4[C@@]5(C)CC[C@H](O)C(C)(C)[C@@H]5CC[C@]43C)[C@@H]12 | > 9.8 | > 16.2 | > 8.4 | > 9 | > 9.3 | > 50
12 | CC(=O)[C@@H]1CC[C@]2(C(=O)O)CC[C@]3(C)[C@H](CC[C@@H]4[C@@]5(C)CC[C@H](O)C(C)(C)[C@@H]5CC[C@]43C)[C@@H]12 [PLATANIC ACID] | > 50 | > 50 | > 50 | > 50 | > 50 | > 50
13 | CC(C)[C@@H]1CC[C@]2(C(=O)O)CC[C@]3(C)[C@H](CC[C@@H]4[C@@]5(C)CC/C(=N\O)C(C)(C)[C@@H]5CC[C@]43C)[C@@H]12 |  |  | > 3 | > 3.4 |  | 
14 | C/C(=N/O)[C@@H]1CC[C@]2(C(=O)O)CC[C@]3(C)[C@H](CC[C@@H]4[C@@]5(C)CC[C@H](O)C(C)(C)[C@@H]5CC[C@]43C)[C@@H]12 | > 50 | > 50 | > 50 | > 50 | > 50 | > 50
